For orientation: CC50 means the concentration giving 50% cytotoxicity. Lower therefore signals harm at low concentration. A word on the EC50: it is the concentration that produces a half-maximal response. As usually defined, the AUC(0-inf) is the area under the concentration-time curve extrapolated to infinity. Lower therefore signals low exposure. A word on the AUC(0-t): it is exposure summed from dosing to a finite time, without extrapolation to infinity. As usually defined, the MRT inf is the average time that molecules of a dose stay in the body. The Tmax is the time at which the peak concentration occurs. One may read the clearance as the volume of plasma or blood freed of the substance per unit of time. High values mean efficient removal, low ones inefficient removal. In general, half-life refers to the time in which the quantity being followed falls by half. Read a high half-life as slow loss. As usually defined, the Cmax is the peak of the concentration-time curve. As a reminder, the bioavailability is dose-corrected exposure relative to a reference, in per cent.

Entries after “also recorded” stand apart in the source; their conditions may differ.

From publication PMC10326263 (Acta Pharmaceutica Sinica. B, 2023) come the findings set out here.

Data set [1] can be described thus: Cytotoxicity in mock-infected MT-4 cells, MTT method. In kind it is cell-based. Particulars: human, mock-infected MT-4 cells, CC50, mock-infected MT-4 cells. In general terms: Tetrazolium assays rely on reduction of a dye to a coloured formazan, in cell work by metabolically active cells.
Data set [2] has as its system MT-4 cells. The description is as above. The data set is classed as cell-based.
Data set [3] deals with HIV-1 mutant strain L100I. Description: microbe, parasite or virus in culture. In kind it is cell-based. Particulars: Human immunodeficiency virus 1, MT4, read-out: EC50 L100I.
Data set [4] concerns HIV-1 mutant strain K103N. Description: microbe, parasite or virus in culture. In kind it is cell-based. Particulars: Human immunodeficiency virus 1, MT4, read-out: EC50 K103N.
Data set [5] has as its system HIV-1 mutant strain Y181C. Description: microbe, parasite or virus in culture. In kind it is cell-based. Particulars: Human immunodeficiency virus 1, MT4, read-out: EC50 Y181C.
In data set [6] the test system is HIV-1 mutant strain Y188L. The data set can be described thus: microbe, parasite or virus in culture. The data set is classed as cell-based. Particulars: Human immunodeficiency virus 1, MT4, read-out: EC50 Y188L.
Data set [7] has as its system HIV-1 mutant strain E138K. The data set can be described thus: microbe, parasite or virus in culture. In kind it is cell-based. Particulars: Human immunodeficiency virus 1, MT4, read-out: EC50 E138K.
Data set [8] relates to HIV-1 mutant strain F227L + V106A. Description: microbe, parasite or virus in culture. The data set is classed as cell-based. Particulars: Human immunodeficiency virus 1, MT4, read-out: EC50 F227L + V106A.
Data set [9] has as its system HIV-1 mutant strain RES056 (K103N + Y181C). The data set can be described thus: microbe, parasite or virus in culture. The data set is classed as cell-based. As to conditions: Human immunodeficiency virus 1, MT4, read-out: EC50 RES056.
The test system of data set [10] is SPF Kunming mice. Description: Acute toxicity experiment in mice. In kind it is in vivo. As to conditions: 7 days.
Data set [11] relates to SPF Kunming mice. The data set can be described thus: Subacute toxicity experiment in mice. In kind it is in vivo.
The nature of data set [12]: In vivo pharmacokinetics study in rats. As to conditions: male, Sprague-Dawley, rat, plasma.
Data set [13] concerns HIV-1 WT strain (IIIB). The data set can be described thus: Anti-HIV activity against WT HIV-1. Particulars: for selectivity index, times higher than that of IAS-0: WT HIV-1.

`Cc1cc(C)cc(S(=O)(=O)c2c(C(=O)NCCCCNS(=O)(=O)c3cccnc3)[nH]c3ccc(Cl)cc23)c1` [R10L4, 5-Chloro-3-((3,5-dimethylphenyl)sulfonyl)-N-(4-(pyridine-3-sulfonamido)butyl)-1H-indole-2-carboxamide] displayed a CC50 at 5 days in [1] of 216000 nM. Also, in data set [2] (CC50, MT-4 cells), the “fold decrease in cytotoxicity compared to IAS-0” value is given as around 40 fold. Moreover, the CC50 in data set [2] (mock-infected MT-4 cells) is 216500 ± 520 nM. Besides, the 50% effective concentration (EC50) in data set [3] turned out to be 17 ± 2 nM; in [4], 68 ± 12 nM; in data set [5] it was 45 ± 10 nM; in data set [6], 540 ± 87 nM; in data set [7], 17 ± 7 nM; in [8], 87 ± 35 nM. In data set [9], the EC50 was 5260 nM. The “mortality or behavior changes, acute toxicity” value in data set [10] (800 mg/kg intragastric) was “no remarkable in vivo toxic effects; also recorded: did not lead to any mortality or observable behavior changes”. Besides, the “body weight, acute toxicity” value in [10] (800 mg/kg, compared with blank group) is “only insignificant body weight loss was seen”. The “mortality or behavior changes, subacute toxicity” value in [11] (50 mg/kg p.o., 12 days) is listed as “no remarkable in vivo toxic effects; also recorded: did not lead to any mortality or observable behavior changes”. Moreover, in data set [11] (50 mg/kg, 12 days, compared with blank group), the “body weight, subacute toxicity” value was “only insignificant body weight loss was seen”. In addition, in [11] (end of subacute toxicity test, heart, liver, spleen, lung, kidney), the “pathology of hematoxylin and eosin-stained slices from vital organs” value is reported as “no marked pathological abnormalities”. The AUC(0-inf) in data set [12] (iv, 2 mg/kg) came out at 481 ± 63.3 ng·h/mL; in data set [12] (po, 10 mg/kg), 203 ± 38.4 ng·h/mL. Besides, the AUC(0-t) was 472 ± 63.4 ng·h/mL in data set [12] (iv, 2 mg/kg) and 199 ± 38.7 ng·h/mL in data set [12] (po, 10 mg/kg). In addition, the MRT inf is 1.45 ± 0.09 h in [12] (iv, 2 mg/kg) and 2.27 ± 0.05 h in data set [12] (po, 10 mg/kg). In addition, the Tmax in data set [12] (iv, 2 mg/kg) was 0.083 h; in data set [12] (po, 10 mg/kg), 0.83 ± 0.15 h. The molecule also showed a clearance in data set [12] (iv, 2 mg/kg) of 70.2 mL/min/kg. The half-life was 1.61 ± 0.04 h in data set [12] (iv, 2 mg/kg) and 1.78 ± 0.25 h in [12] (po, 10 mg/kg). The Cmax is 657 ± 99.2 ng/mL in data set [12] (iv, 2 mg/kg, i.v. 2 mg/kg) and at most 80 ng/mL in data set [12] (po, 10 mg/kg, p.o. 10 mg/kg). The bioavailability in [12] (oral, 10 mg/kg) amounted to 8.5%. Also, in [13], the “selectivity index, times higher than that of IAS-0” value is on record as around 14 times. Besides, the “SI IIIB (CC50/EC50 ratio)” value in [13] (WT HIV-1 IIIB) is on record as 30,930.

As for `Cc1cc(C)cc(S(=O)(=O)c2c(C(=O)NCCCNS(=O)(=O)c3ccccc3F)[nH]c3ccc(Cl)cc23)c1` [R11L3, 5-Chloro-3-((3,5-dimethylphenyl)sulfonyl)-N-(3-((2-fluorophenyl)sulfonamido)propyl)-1H-indole-2-carboxamide], half-maximal cytotoxicity in [1] (CC50 at 5 days) was put at 192000 ± 4990 nM. The EC50 was 160 ± 78 nM in data set [3]; 280 ± 35 nM in data set [4]; 610 ± 140 nM in data set [5]; 7120 ± 760 nM in [6]; 68 ± 2 nM in data set [7]; 880 ± 520 nM in data set [8]. In data set [9], the EC50 is 12800 ± 10100 nM. The “SI IIIB (CC50/EC50 ratio)” value in data set [13] (WT HIV-1 IIIB) is recorded as 12,570.

`Cc1cc(C)cc(S(=O)(=O)c2c(C(=O)NCCCCNS(=O)(=O)c3ccccc3F)[nH]c3ccc(Cl)cc23)c1` [R11L4, 5-Chloro-3-((3,5-dimethylphenyl)sulfonyl)-N-(4-((2-fluorophenyl)sulfonamido)butyl)-1H-indole-2-carboxamide]: the CC50 at 5 days in data set [1] is 189500 ± 1320 nM. The half-maximal effective concentration (EC50) is 63 ± 25 nM in [3]; 170 ± 17 nM in [4]; 200 ± 17 nM in data set [5]; 1740 ± 320 nM in data set [6]; 36 ± 5 nM in data set [7]; 290 ± 34 nM in data set [8]. Moreover, the EC50 in data set [9] is above 190000 nM. In addition, the “SI IIIB (CC50/EC50 ratio)” value in data set [13] (WT HIV-1 IIIB) is recorded as 20,621.

On to `Cc1cc(C)cc(S(=O)(=O)c2c(C(=O)NCCNS(=O)(=O)c3cccc(F)c3)[nH]c3ccc(Cl)cc23)c1` [R12L2, 5-Chloro-3-((3,5-dimethylphenyl)sulfonyl)-N-(2-((3-fluorophenyl)sulfonamido)ethyl)-1H-indole-2-carboxamide], for which half-maximal cytotoxicity in data set [1] (CC50 at 5 days) was put at 187000 ± 4810 nM. Further, the EC50 in [3] amounted to 460 ± 180 nM; in [4], 500 ± 89 nM; in [5] it was 550 ± 89 nM; in [6], 3300 ± 300 nM; in data set [7], 440 ± 110 nM; in [8] it was 2260 ± 550 nM. The EC50 in [9] is 4940 ± 1240 nM. In addition, in data set [13] (WT HIV-1 IIIB), the “SI IIIB (CC50/EC50 ratio)” value was 5151.

With `Cc1cc(C)cc(S(=O)(=O)c2c(C(=O)NCCCNS(=O)(=O)c3cccc(F)c3)[nH]c3ccc(Cl)cc23)c1` [R12L3, 5-Chloro-3-((3,5-dimethylphenyl)sulfonyl)-N-(3-((3-fluorophenyl)sulfonamido)propyl)-1H-indole-2-carboxamide], it took 204000 ± 10800 nM to reach half-maximal cytotoxicity in data set [1] (CC50 at 5 days). In addition, the EC50 in data set [3] amounted to 260 ± 87 nM; in [4], 450 ± 120 nM; in data set [5] it was 750 ± 210 nM; in data set [6], 3380 ± 450 nM; in data set [7] it was 110 ± 43 nM; in [8], 990 ± 140 nM. Further, the EC50 in [9] was determined as 4730 ± 1040 nM. Moreover, in data set [13] (WT HIV-1 IIIB), the “SI IIIB (CC50/EC50 ratio)” value is listed as 5799.

Molecule `Cc1cc(C)cc(S(=O)(=O)c2c(C(=O)NCCCCNS(=O)(=O)c3cccc(F)c3)[nH]c3ccc(Cl)cc23)c1` [R12L4, 5-Chloro-3-((3,5-dimethylphenyl)sulfonyl)-N-(4-((3-fluorophenyl)sulfonamido)butyl)-1H-indole-2-carboxamide] displayed a CC50 at 5 days in data set [1] of 186000 ± 12500 nM. Moreover, the EC50 in [3] is 63 ± 17 nM; in data set [4], 240 ± 68 nM; in data set [5], 190 ± 34 nM; in [6], 1450 ± 410 nM; in data set [7], 49 ± 12 nM; in data set [8], 240 ± 34 nM. In addition, the EC50 in data set [9] was above 173000 nM. Besides, in data set [13] (WT HIV-1 IIIB), the “SI IIIB (CC50/EC50 ratio)” value was 10,126.

For `Cc1cc(C)cc(S(=O)(=O)c2c(C(=O)NCCNS(=O)(=O)C3CC3)[nH]c3ccc(Cl)cc23)c1` [R13L2, 5-Chloro-N-(2-(cyclopropanesulfonamido)ethyl)-3-((3,5-dimethylphenyl)sulfonyl)-1H-indole-2-carboxamide], the 50% cytotoxic concentration (CC50) at 5 days in data set [1] was found to be 172000 ± 6910 nM. Moreover, the EC50 was found to be 53 ± 22 nM in [3]; 110 ± 20 nM in data set [4]; 180 ± 57 nM in data set [5]; 1650 ± 390 nM in data set [6]; 55 ± 16 nM in data set [7]; 510 ± 120 nM in data set [8]. Also, the EC50 was determined as 32600 ± 7960 nM in [9] and 4.1 ± 0.79 nM in data set [13] (read-out: EC50 IIIB, WT HIV-1 IIIB, MT-4 cells). In addition, the “selectivity index, times higher than that of IAS-0” value in data set [13] is around 14 times. Moreover, in [13] (WT HIV-1 IIIB), the “SI IIIB (CC50/EC50 ratio)” value was 41,951.

Take `Cc1cc(C)cc(S(=O)(=O)c2c(C(=O)NCCNS(=O)(=O)c3ccc(-c4ccccc4)cc3)[nH]c3ccc(Cl)cc23)c1` [R14L2, N-(2-([1,1′-Biphenyl]-4-sulfonamido)ethyl)-5-chloro-3-((3,5-dimethylphenyl)sulfonyl)-1H-indole-2-carboxamide]: the CC50 at 5 days in data set [1] turned out to be 64300 ± 11200 nM. For the same molecule, the EC50 in data set [3] was 950 ± 97 nM; in [4] it was 1190 ± 260 nM; in data set [5], 1420 ± 370 nM; in data set [6] it was above 31200 nM; in [7] it was 740 ± 97 nM; in [8], 2990 ± 680 nM. In addition, the EC50 in data set [9] is above 82400 nM. Besides, the “SI IIIB (CC50/EC50 ratio)” value in data set [13] (WT HIV-1 IIIB) is reported as 317.
